One series has as its system omega 3 sites. Description: Global ischemia on gerbils. It counts as in vivo, gerbil. The following applies: Meriones unguiculatus, 168 h; both carotides clamped 10 minutes; hippocampes taken one week later; 3H-PK 11195 2 nM; compared to control; significance marks (*, **, ***, NS) given; read-out: Global protection in %. The procedure:
3) Global ischemia on gerbils
For this test, males gerbilles were anaesthetized with brietal at the doses of 35 mg/kg IP; thereafter, both carotides were clamped for 10 minutes, then the clamping was released. Treated animals received each 10 mg/kg of the compounds of one of the examples.
One week later, the animals were killed and both hippocampes were taken, weighed and frozen at -80° C.
After crushing with 1 ml of TRIS-HCl buffer pH 7.4 for 30 secondes, aliquots of each 50 μl of this preparation were incubed in each 1 ml of TRIS-HCl buffer containing ^3 H-PK 11195 at 2 nM (90 Ci/mmole, NENE, Germany) for 1 hour at 25° C. For each preparation, 3 determinations were made. The density of omega 3 sites (marked by the specific ^3 H PK 11195 marker) are expressed in f-moles of PK 11195/mg of fresh tissues and converted in percentage of protection compared to control.

Series [1] concerns platelet aggregation induced by PAF. Description: Inhibition of platelet aggregation induced by PAF. It counts as cell-based, New Zealand rabbits. Particulars: Oryctolagus cuniculus, rabbit platelets, aggregometer at 57° C. [sic]. As for the experimental part:
1) Inhibition of platelet aggregation induced by PAF
This experimentation was conducted according to the method of R. KINLOUGH. RATHBONE, J. P. CAZENAVE, M. PACKHAM and F. MUSTARD, Lab. Invest. 48, 98, 1980. In this test, New Zealand rabbits were used (male New Zealand rabbits of an average weight of 5 kg).
The determinations are made on a chrono-log Coultronics aggregometer, at […] coupled with a graphic recorder; the results of these determinations (in molecular concentration) are reported on the table I on the central column.

Another series in a line: Toxicity on mice. The following applies: mouse, in vivo, IP. An excerpt: None of these compounds of this invention was toxic per os at dose of 1 g/kg on mice.
None of the compounds was toxic IP at the dose of 1 g/kg on mice with the exception of the examples 1, 5 and 10 for which the LD 50 was comprised between 0.5 and 1 g/kg.

For orientation: IC50 means the concentration needed to halve the response being measured. A low value points to greater potency. In general, LD50 refers to the dose expected to kill half of the subjects tested.

For `Cc1nnc2n1-c1sc3c(c1C(c1ccccc1Cl)=NC2)CCN(S(=O)(=O)c1ccccc1)C3` [Example 2, 6-(2-chlorophenyl)-9-phenylsulphonyl-7,8,9,10-tetrahydro-1-methyl 4H-pyrido [4',3':4,5] thieno [3,2-f] 1,2,4-triazolo [4,3-a] 1,4-diazepine], the inhibition in vivo at 10 mg/kg in the series with omega 3 sites is 38.3%. The IC50 in series [1] is 0.225 µM.
In the same order, the values of `Cc1nnc2n1-c1sc3c(c1C(c1ccccc1Cl)=NC2)CCN(S(=O)(=O)c1c(Cl)cc(Cl)cc1Cl)C3` [Example 3, 6-(2-chlorophenyl)-9-(2,4,6-trichloro)phenylsulphonyl-7,8,9,10-tetrahydro-1-methyl 4H-pyrido [4',3':4,5] thieno [3,2-f] 1,2,4-triazolo [4,3-a] 1,4-diazepine] are 33.3% and 0.0371 µM.
In the same order, the values of `Cc1nnc2n1-c1sc3c(c1C(c1ccccc1Cl)=NC2)CCN(S(=O)(=O)c1ccc(C(F)(F)F)cc1)C3` [Example 4, 6-(2-chlorophenyl)-9-(trifluoromethyl)phenylsulphonyl-7,8,9,10-tetrahydro-1-methyl 4H-pyrido [4',3':4,5] thieno [3,2-f] 1,2,4-triazolo [4,3-a] 1,4-diazepine] are 38.7% and 0.0982 µM.
In turn, `COc1ccc(S(=O)(=O)N2CCc3c(sc4c3C(c3ccccc3Cl)=NCc3nnc(C)n3-4)C2)c(OC)c1OC` [Example 5, 6-(2-chlorophenyl)-9-(4,5,6-trimethoxy)phenylsulphonyl-7,8,9,10-tetrahydro-1-methyl 4H-pyrido [4',3':4,5] thieno [3,2-f] 1,2,4-triazolo [4,3-a] 1,4-diazepine] came in with an LD50 in “Toxicity on mice” of 500 to 1000 mg/kg. Further, the inhibition in vivo at 10 mg/kg with omega 3 sites is 28.1%. This molecule also returned an IC50 in series [1] of 0.187 µM.
Consider `Cc1nnc2n1-c1sc3c(c1C(c1ccccc1Cl)=NC2)CCN(S(=O)(=O)c1ccc(C(C)(C)C)cc1)C3` [Example 6, 6-(2-chlorophenyl)-9-(4-tert.butyl)phenylsuphonyl-7,8,9,10-tetrahydro-1-methyl 4H-pyrido [4',3':4,5] thieno [3,2-f] 1,2,4-triazolo [4,3-a] 1,4-diazepine], for which, in the series with omega 3 sites, the inhibition in vivo at 10 mg/kg turned out to be 13.8%. In series [1], this molecule yielded an IC50 of 0.117 µM.
Regarding `COc1ccc(S(=O)(=O)N2CCc3c(sc4c3C(c3ccccc3Cl)=NCc3nnc(C)n3-4)C2)cc1OC` [Example 7, 6-(2-chlorophenyl)-9-(3,4-dimethoxy)phenylsulphonyl-7,8,9,10-tetrahydro-1-methyl 4H-pyrido [4',3':4,5] thieno [3,2-f] 1,2,4-triazolo [4,3-a] 1,4 diazepine], the inhibition in vivo at 10 mg/kg in the series with omega 3 sites is 26.6%. In series [1], the IC50 worked out at 0.119 µM.
In the same order, the values of `Cc1cc(C)c(S(=O)(=O)N2CCc3c(sc4c3C(c3ccccc3Cl)=NCc3nnc(C)n3-4)C2)c(C)c1` [Example 8, 6-(2-chlorophenyl)-9-(2,4,6-trimethyl)phenylsulphonyl-7,8,9,10-tetrahydro-1-methyl 4H-pyrido [4',3':4,5] thieno [3,2-f] 1,2,4-triazolo [4,3-a] 1,4-diazepine] are 30.5% and 0.0251 µM.
In the same order, the values of `COc1ccc(S(=O)(=O)N2CCc3c(sc4c3C(c3ccccc3Cl)=NCc3nnc(C)n3-4)C2)cc1` [Example 9, 6-(2-chlorophenyl)-9-(4-methoxy)phenylsulphonyl-7,8,9,10-tetrahydro-1-methyl 4H-pyrido [4',3':4,5] thieno [3,2-f] 1,2,4-triazolo [4,3-a] 1,4-diazepine] are 9.4% and 0.122 µM.
In the series “Toxicity on mice”, `Cc1nnc2n1-c1sc3c(c1C(c1ccccc1Cl)=NC2)CCN(S(=O)(=O)c1ccc(Oc2ccc([N+](=O)[O-])cc2)cc1)C3` [Example 10, 6-(2-chlorophenyl)-9-[4-(4'-nitrophenoxy)]phenylsulphonyl-7,8,9,10-tetrahydro-1-methyl 4H-pyrido [4',3':4,5] thieno [3,2-f] 1,2,4-triazolo [4,3-a] 1,4-diazepine] had an LD50 of 500 to 1000 mg/kg. Further, the inhibition in vivo at 10 mg/kg in the series on omega 3 sites turned out to be 19.3%. The same molecule yielded an IC50 in series [1] of 0.00141 µM.
Turning to `Cc1nnc2n1-c1sc3c(c1C(c1ccccc1Cl)=NC2)CCN(S(=O)(=O)c1cccs1)C3` [Example 11, 6-(2-chlorophenyl)-9-α-thienylphenylsulphonyl-7,8,9,10-tetrahydro-1-methyl 4H-pyrido [4',3':4,5] thieno [3,2-f] 1,2,4-triazolo [4,3-a] 1,4-diazepine], the inhibition in vivo at 10 mg/kg with omega 3 sites was determined as 32.7%. Moreover, in series [1], half-maximal inhibition (IC50) was put at 0.144 µM.
In the same order, the values of `Cc1nnc2n1-c1sc3c(c1C(c1ccccc1Cl)=NC2)CCN(S(=O)(=O)c1ccco1)C3` [Example 12, 6-(2-chlorophenyl)-9-α-furylphenylsulphonyl-7,8,9,10-tetrahydro-1-methyl 4H-pyrido [4',3':4,5] thieno [3,2-f] 1,2,4-triazolo [4,3-a] 1,4-diazepine] are 21.4% and 0.11 µM.
In the same order, the values of `Cc1nnc2n1-c1sc3c(c1C(c1ccccc1Cl)=NC2)CCN(S(=O)(=O)c1ccc[nH]1)C3` [Example 13, 6-(2-chlorophenyl)-9-(α-pyrrolyl)sulphonyl-7,8,9,10-tetrahydro-1-methyl-4H-pyrido [4',3':4,5] thieno [3,2-f] 1,2,4-triazolo [4,3-a] 1,4-diazepine] are 29.3% and 0.215 µM.
In the same order, the values of `Cc1nnc2n1-c1sc3c(c1C(c1ccccc1Cl)=NC2)CCN(S(=O)(=O)c1cccc2cccnc12)C3` [Example 14, 6-(2-chlorophenyl)-9-(8-quinolyl)sulfonyl-7,8,9,10-tetrahydro-1-methyl-4H-pyrido-[4',3':4,5] thieno [3,2-f] 1,2,4-triazolo [4,3-a] 1,4-diazepine] are 17.4% and 0.065 µM.
Consider `Cc1nnc2n1-c1sc3c(c1C(c1ccccc1Cl)=NC2)CCN(S(=O)(=O)c1ccc2ccccc2c1)C3` [Example 15, 6-(2-chlorophenyl)-9-(2-naphtyl)sulphonyl-7,8,9,10-tetrahydro-1-methyl-4H-pyrido [4',3':4,5] thieno [3,2-f] 1,2,4-triazolo [4,3-a] 1,4-diazepine], for which, in the series with omega 3 sites, the inhibition in vivo at 10 mg/kg was determined as 34.8%. Inhibition in series [1] was half-maximal at 0.431 µM (IC50).
Turning to `Cc1nnc2n1-c1sc3c(c1C(c1ccccc1Cl)=NC2)CCN(S(=O)(=O)c1ccc(C(=O)O)cc1)C3` [Example 16, 6-(2-chlorophenyl)-9-(4-carboxy)phenylsulphonyl-7,8,9,10-tetrahydro-1-methyl-4H-pyrido [4',3':4,5] thieno [3,2-f] 1,2,4-triazolo [4,3-a] 1,4-diazepine], the inhibition in vivo at 10 mg/kg in the series with omega 3 sites came out at 23.9%. In series [1], this molecule showed an IC50 of 0.0201 µM.
In the same order, the values of `Cc1nnc2n1-c1sc3c(c1C(c1ccccc1Cl)=NC2)CCN(S(=O)(=O)c1ccc(Oc2ccc(C(=O)O)cc2)cc1)C3` [Example 17, 6-(2-chlorophenyl)-9-[4-(4'-(carboxy)phenyloxy)phenyl] sulphonyl-7,8,9,10-tetrahydro-1-methyl-4H-pyrido [4',3':4,5] thieno [3,2-f] 1,2,4-triazolo [4,3-a] 1,4-diazepine] are 7.8% and 0.472 µM.
In the same order, the values of `COc1cc(OC)c(S(=O)(=O)N2CCc3c(sc4c3C(c3ccccc3Cl)=NCc3nnc(C)n3-4)C2)cc1SC` [Example 18, 6-(2-chlorophenyl)-9-[5-methylthio 2,4-dimethoxy]phenyl sulphonyl-7,8,9,10-tetrahydro-1-methyl-4H-pyrido [4',3':4,5] thieno [3,2-f] 1,2,4-triazolo [4,3-a] 1,4-diazepine] are 10% and 0.0222 µM.
As for `COc1cc(OC)c(S(=O)(=O)N2CCc3c(sc4c3C(c3ccccc3Cl)=NCc3nnc(C)n3-4)C2)cc1S(C)(=O)=O` [Example 19, 6-(2-chlorophenyl)-9-[5-mesyl 2,4-dimethoxy]phenylsulphonyl-7,8,9,10-tetrahydro-1-methyl-4H-pyrido [4',3':4,5] thieno [3,2-f] 1,2,4-triazolo [4,3-a] 1,4-diazepine], the inhibition in vivo at 10 mg/kg in the series with omega 3 sites stood at 8.4%. The molecule further came in with an IC50 in series [1] of 0.375 µM.
In the same order, the values of `Cc1nnc2n1-c1sc3c(c1C(c1ccccc1Cl)=NC2)CCN(S(=O)(=O)C(C)C)C3` [Example 20, 6-(2-chlorophenyl)-9-isopropylsulfonyl-7,8,9,10-tetrahydro-1-methyl-4H-pyrido [4',3':4,5] thieno [3,2-f] 1,2,4-triazolo [4,3-a] 1,4-diazepine] are 47.5% and 0.517 µM.
